The supplement of paper PMC10627819

Columns and labels:
S. aureus Newman = experiment: Bliss interaction score (quartile over a dose matrix) (fitness difference); higher = more antagonism (negative = synergy)
How it was run: (§1)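 The Bliss score is observed fitness minus expected fitness, where the expected value is the product of single-drug fitness values inferred from combination data. Fitness is OD595 at entry into stationary phase normalised to the plate's robust no-drug mean and capped at 1. Scores are reported as quartiles spanning technical, biological and donor/recipient replicates.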

B. subtilis 168 [1] = experiment: as above
How it was run: as §1

S. pneumoniae D39V [2] = experiment: as above
How it was run: as §1

S. aureus DSM 20231 = experiment: as above
How it was run: as §1

B. subtilis 168 [3] = experiment: fitness (endpoint OD595 vs no drug) (fraction); higher = more growth
How it was run: (§2)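 With the first reading as background, OD595 was measured every 30 min for 14 h in 384-well plates kept at 37 °C and inoculated at OD595 0.01. TSB, LB Lennox or CY was the medium. Fitness is the optical density at the transition into stationary phase divided by the robust mean of no-drug control wells, with a cap of 1.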

S. pneumoniae D39V [4] = experiment: as above
How it was run: as §2
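Throughout, for Bliss interaction score (quartile over a dose matrix): first quartile when negative (synergy) and third quartile when positive (antagonism).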
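Throughout, for fitness (endpoint OD595 vs no drug): OD595 on entry to stationary phase over no-drug wells; at most 1.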

CCC[C@@H]1C[C@@H](C(=O)N[C@@H]([C@H]2O[C@H](SC)[C@H](O)[C@@H](O)[C@H]2O)[C@H](C)Cl)N(C)C1 [Clindamycin] + CO[C@@H]1[C@@H](OC(N)=O)[C@@H](O)[C@H](Oc2ccc3c(O)c(NC(=O)c4ccc(O)c(CC=C(C)C)c4)c(=O)oc3c2C)OC1(C)C [Novobiocin]
Conditions | Bliss interaction score
B. subtilis 168 [1] | -0.063
S. aureus DSM 20231 | 0.0437
S. aureus Newman | 0.16
S. pneumoniae D39V [2] | -0.102

fitness, B. subtilis 168 [3], one replicate
Conditions | first compound 0.0039 µg/mL | first compound 0.0078 µg/mL | first compound 0.0156 µg/mL | first compound 0.0625 µg/mL | first compound 0.125 µg/mL | first compound 0.25 µg/mL
partner 0.05 µg/mL | ≥ 1 | 0.895 | 0.867 | – | – | –
partner 0.1 µg/mL | ≥ 1 | 0.889 | 0.843 | – | – | –
partner 0.125 µg/mL | – | – | – | 0.526 | 0.496 | 0.348
partner 0.2 µg/mL | ≥ 1 | 0.903 | 0.818 | – | – | –
partner 0.25 µg/mL | – | – | – | 0.411 | 0.39 | 0.318
partner 0.5 µg/mL | – | – | – | 0.353 | 0.276 | 0.0724

fitness, B. subtilis 168 [3]
Conditions | first compound 0.0625 µg/mL | first compound 0.125 µg/mL | first compound 0.25 µg/mL
partner 0.0125 µg/mL | 0.558 | 0.365 | 0.346
partner 0.025 µg/mL | 0.563 | 0.334 | 0.326
partner 0.05 µg/mL | 0.581 | 0.369 | 0.325

O=C(O[C@@H]1Cc2c(O)cc(O)cc2O[C@@H]1c1cc(O)c(O)c(O)c1)c1cc(O)c(O)c(O)c1 [EGCG] + CO[C@@H]1[C@@H](OC(N)=O)[C@@H](O)[C@H](Oc2ccc3c(O)c(NC(=O)c4ccc(O)c(CC=C(C)C)c4)c(=O)oc3c2C)OC1(C)C [Novobiocin]
Conditions | Bliss interaction score
B. subtilis 168 [1] | -0.0765
S. aureus DSM 20231 | 0.0574
S. aureus Newman | 0.074
S. pneumoniae D39V [2] | -0.0624

fitness, B. subtilis 168 [3]
Conditions | first compound 6.25 µg/mL | first compound 12.5 µg/mL | first compound 25 µg/mL
partner 0.0125 µg/mL | 0.968 | 0.643 | 0.253
partner 0.025 µg/mL | 0.93 | 0.568 | 0.234
partner 0.05 µg/mL | 0.9 | – | 0.29

fitness, B. subtilis 168 [3], one replicate
Conditions | partner 0.1 µg/mL | partner 0.125 µg/mL | partner 0.2 µg/mL | partner 0.25 µg/mL | partner 0.5 µg/mL
first compound 6.25 µg/mL | 0.949 | 0.92 | 0.896 | 0.875 | 0.563
first compound 12.5 µg/mL | 0.756 | 0.69 | 0.759 | 0.522 | 0.194
first compound 25 µg/mL | 0.546 | 0.213 | 0.541 | 0.223 | 0.207

CC[C@H]1OC(=O)[C@H](C)[C@@H](O[C@H]2C[C@@](C)(OC)[C@@H](O)[C@H](C)O2)[C@H](C)[C@@H](O[C@@H]2O[C@H](C)C[C@H](N(C)C)[C@H]2O)[C@](C)(OC)C[C@@H](C)C(=O)[C@H](C)[C@@H](O)[C@]1(C)O [Clarithromycin] + CC1=C\[C@@H](O)CC(=O)Cc2nc(co2)C(=O)N2CCC=C2C(=O)O[C@H](C(C)C)[C@H](C)/C=C/C(=O)NC\C=C\1 [Virginiamycin M1]
Conditions | Bliss interaction score
B. subtilis 168 [1] | 0.0359
S. aureus DSM 20231 | 0.0856
S. aureus Newman | 0.0322
S. pneumoniae D39V [2] | 0.0597

fitness, S. pneumoniae D39V [4], one replicate
Conditions | first compound 0.007812 µg/mL | first compound 0.01562 µg/mL | first compound 0.03125 µg/mL | first compound 0.0625 µg/mL | first compound 0.125 µg/mL | first compound 0.25 µg/mL
partner 0.15 µg/mL | – | – | – | 0.788 | 0.645 | 0.463
partner 0.3 µg/mL | – | – | – | 0.734 | 0.635 | 0.425
partner 0.5 µg/mL | 0.856 | 0.884 | 0.758 | 0.756 | 0.529 | 0.361
partner 1 µg/mL | 0.852 | 0.85 | 0.719 | 0.608 | 0.328 | 0.132
partner 2 µg/mL | 0.853 | 0.808 | 0.682 | – | – | –

fitness, S. pneumoniae D39V [4]
Conditions | first compound 0.0625 µg/mL | first compound 0.07 µg/mL | first compound 0.125 µg/mL | first compound 0.14 µg/mL | first compound 0.25 µg/mL | first compound 0.28 µg/mL
partner 0.5 µg/mL | – | 0.119 | – | 0.0772 | – | 0.0473
partner 1 µg/mL | – | 0.118 | – | 0.0875 | – | 0.0656
partner 2 µg/mL | 0.647 | 0.124 | 0.463 | 0.105 | 0.288 | 0.0464

O=C1CN(/N=C/c2ccc([N+](=O)[O-])o2)C(=O)N1 [Nitrofurantoin] + CO[C@H]1/C=C/O[C@@]2(C)Oc3c(C)c(O)c4c(O)c(c(/C=N/N5CCN(C)CC5)c(O)c4c3C2=O)NC(=O)/C(C)=C\C=C\[C@H](C)[C@H](O)[C@@H](C)[C@@H](O)[C@@H](C)[C@H](OC(C)=O)[C@@H]1C [Rifampicin]
Conditions | Bliss interaction score
B. subtilis 168 [1] | -0.0448
S. aureus DSM 20231 | -0.0228
S. aureus Newman | -0.0316
S. pneumoniae D39V [2] | -0.117

fitness, S. pneumoniae D39V [4]
Conditions | first compound 1.285 µg/mL | first compound 2 µg/mL | first compound 2.57 µg/mL | first compound 4 µg/mL | first compound 8 µg/mL
partner 0.05 µg/mL | 0.825 | 0.789 | 0.798 | 0.781 | 0.668
partner 0.1 µg/mL | 0.372 | – | 0.353 | – | 0.351
partner 0.2 µg/mL | 0.129 | – | 0.166 | – | –

fitness, S. pneumoniae D39V [4], one replicate
Conditions | first compound 2 µg/mL | first compound 4 µg/mL | first compound 5.14 µg/mL | first compound 8 µg/mL
partner 0.025 µg/mL | 0.873 | 0.85 | – | 0.782
partner 0.05 µg/mL | – | – | 0.806 | –
partner 0.1 µg/mL | – | – | 0.369 | –
partner 0.2 µg/mL | 0 | 0 | 0.171 | 0
